Read-outs that look alike come from different tables or passages of the source.
Key:
[1] = test system: ovarian cancer cells (OVCAR-3); assay: Cancer cell line growth inhibition, Sulforhodamine B assay, OVCAR-3; format: cell-based; details: Homo sapiens, read-out: Cancer Cell Line GI50 Range OVCAR-3
Protocol: (§1) Breast cancer cells (MDA-MB-231 and MDA-MB-468), colon cancer cells (HCT116) and ovarian cancer cells (PA-1 and OVCAR-3) were seeded (1000 to 4000 in 80 μl per well depending on the cell growth rate) into 96 well plates 24 hours before compound overlay. Compounds were prepared as 10 mM stock solutions in 100% DMSO which were diluted with DMEM (Dulbecco's Modified Eagle's Medium) cell growth Medium (Invitrogen, Burlington, ON, Canada) containing 10% FBS (Fetal Bovine Serum) to concentrations ranging from 50 nM to 250 μM. Aliquots (20 μl) from each concentration were overlaid to 80 μl of the pre-seeded cells in the 96 well plates to make final concentrations of 10 nM to 50 μM. The cells were cultured for 5 days before the Sulforhodamine B assay (SRB) was performed to determine the compound's cell growth inhibition activity.
(§2) Sulforhodamine B (purchased from Sigma, Oakville, ON, Canada) is a water-soluble dye that binds to the basic amino acids of the cellular proteins. Thus, colorimetric measurement of the bound dye provides an estimate of the total protein mass that is related to the cell number. the cells are fixed in situ by gently aspirating off the culture media and adding 50 μl ice cold 10% Trichloroacetic Acid (TCA) per well and incubate at 4° C. for 30-60 min, The plates are washed with H2O five times and allowed to air dry for 5 min. Addition of 50 μl 0.4% (w/v) SRB solution in 1% (v/v) acetic acid to each well and incubation for 30 min at RT completes the staining reaction. Following staining, plates are washed four times with 1% acetic acid to remove unbound dye and then allowed to air dry for 5 min. The stain is solubilized with 100 μl of 10 mM Tris pH 10.5 per well. Absorbance is read at 570 nm.
(§3) The percentage (%) of relative growth inhibition was calculated by comparing to DMSO treated only cells (100%). GI50's were determined for compounds with cytotoxic activity. The GI50 was calculated using GraphPad PRISM software (GraphPad Software, Inc., San Diego, Calif., USA).
(§4) In Table 3 below, GI50 value ranges for compound examples against breast cancer cell lines (MDA-MB-468), colon cancer cell lines (HCT116) and ovarian cancer cell lines (OVCAR-3) are given.

human TTK = target: T1, human TTK (Homo sapiens, UniProt P33981); assay: TTK inhibition assay (indirect ELISA); format: biochemical
T1 construct: Active TTK was purchased from Invitrogen as an amino terminal GST fusion of full length human TTK; purchased Invitrogen
T1 sequence (P33981 1-857): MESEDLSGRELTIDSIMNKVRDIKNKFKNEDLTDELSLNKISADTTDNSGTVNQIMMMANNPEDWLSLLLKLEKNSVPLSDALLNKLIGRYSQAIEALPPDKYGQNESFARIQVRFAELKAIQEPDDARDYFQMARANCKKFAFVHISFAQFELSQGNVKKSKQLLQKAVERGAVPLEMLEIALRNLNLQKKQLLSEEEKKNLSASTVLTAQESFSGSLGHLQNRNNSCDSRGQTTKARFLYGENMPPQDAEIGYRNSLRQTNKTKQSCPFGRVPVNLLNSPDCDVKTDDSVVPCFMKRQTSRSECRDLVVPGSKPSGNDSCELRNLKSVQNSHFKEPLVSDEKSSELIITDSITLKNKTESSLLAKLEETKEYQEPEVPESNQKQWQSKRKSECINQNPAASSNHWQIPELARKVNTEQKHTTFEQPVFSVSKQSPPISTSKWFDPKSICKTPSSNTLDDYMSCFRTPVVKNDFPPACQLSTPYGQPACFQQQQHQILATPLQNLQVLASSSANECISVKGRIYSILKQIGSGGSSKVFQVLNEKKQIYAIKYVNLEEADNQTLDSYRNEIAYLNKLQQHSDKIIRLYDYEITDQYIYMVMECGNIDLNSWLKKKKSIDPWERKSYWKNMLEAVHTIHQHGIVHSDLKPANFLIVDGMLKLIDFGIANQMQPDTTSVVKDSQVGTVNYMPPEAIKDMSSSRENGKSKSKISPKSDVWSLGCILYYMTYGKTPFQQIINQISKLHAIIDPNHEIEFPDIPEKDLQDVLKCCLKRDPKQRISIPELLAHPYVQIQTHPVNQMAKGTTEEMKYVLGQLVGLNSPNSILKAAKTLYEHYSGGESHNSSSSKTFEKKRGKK
Protocol: Active TTK was purchased from Invitrogen as an amino terminal GST fusion of full length human TTK.
TTK activity was measured using an indirect ELISA detection system.
Compounds were pre-incubated in the presence of enzyme for 5 minutes prior to addition of ATP and the activity remaining quantified using the above described activity assay. The % Inhibition of a compound was determined using the following formula; % Inhibition=100×(1−(experimental value−background value)/(high activity control−background value)). The IC50 value was determined using a non-linear 4 point logistic curve fit (XLfit4, IDBS) with the formula; (A+(B/(1+((x/C)^D)))), where A=background value, B=range, C=inflection point, D=curve fit parameter.

[2] = test system: breast cancer cells (MDA-MB-468); assay: Cancer cell line growth inhibition, Sulforhodamine B assay, MDA-MB-468; format: cell-based; details: Homo sapiens, read-out: Cancer Cell Line GI50 Range MDA-MB-468
Protocol: as §1, §2, §3
(§5) In Table 1 below, GI50 value ranges for compound examples against breast cancer cell lines (MDA-MB-468), colon cancer cell lines (HCT116) and ovarian cancer cell lines (PA-1) are given.
as §4

[3] = test system: colon cancer cells (HCT116); assay: Cancer cell line growth inhibition, Sulforhodamine B assay, HCT116; format: cell-based; details: Homo sapiens, HCT-116, HCT116 colon cancer cell line; read-out: Cancer Cell Line GI50 Range HCT116
Protocol: as §1, §2, §3, §5
In Table 2 below, GI50 value ranges for compound examples against breast cancer cell lines (MDA-MB-231), colon cancer cell lines (HCT116) and ovarian cancer cell lines (PA-1) are given.
as §4

[4] = OVCAR-3, OVCAR-3 ovarian cancer cell line
[5] = 16 μM ATP (Sigma cat# A7699), read-out: TTK IC50 Range (denoted with an asterisk)
[6] = MDA-MB-468, MDA-MB-468 breast cancer cell line
[7] = 100 μM ATP, read-out: TTK IC50 Range
[8] = OVCAR-3 ovarian cancer cell line
[9] = MDA-MB-468 breast cancer cell line
[10] = Table 2, 16 μM ATP (asterisk), read-out: TTK IC50 Range

Row | SMILES | GI50 [1, 4] | GI50 [2, 6] | GI50 [3] | IC50 (human TTK; [7]) | also measured
1 | COCCNc1nc(OC2CCCC2)nc2c(-c3ccc(C(=O)NC4CC4)cc3)cnn12 [Example C8] | 100 to 500 nM | 100 to 500 nM | 100 to 500 nM |  | IC50 (human TTK; [5]): < 100 nM
2 | Cc1cc(-c2cnn3c(NCC4CCOCC4)cc(NC4CCC4)nc23)ccc1C(=O)NC1CC1 [Example C109] | 100 to 500 nM | 100 to 500 nM | ≤ 100 nM | < 100 nM | 
3 | CC[C@H](Nc1cc(NC[C@H]2CCOC2)n2ncc(-c3ccc(C(=O)NC4CC4)c(C)c3)c2n1)[C@H](C)O [Example C133] | 100 to 500 nM | 100 to 500 nM | 100 to 500 nM | < 100 nM | 
4 | Cc1cc(-c2cnn3c(NCC4CCOCC4)nc(NC4CCCCC4)nc23)ccc1C(=O)NC1CC1 [Example C22] | 100 to 500 nM | 100 to 500 nM | 100 to 500 nM |  | IC50 (human TTK; [5]): < 100 nM
5 | Cc1cc(-c2cnn3c(NCCN4CCOCC4)cc(Oc4cccnc4)nc23)ccc1C(=O)NC1CC1 [Example C51] | 100 to 500 nM | 100 to 500 nM | 100 to 500 nM | < 100 nM | 
6 | COc1cccc(Oc2cc(NCCN3CCOCC3)n3ncc(-c4ccc(C(=O)NC5CC5)c(C)c4)c3n2)c1 [Example C85] | 100 to 500 nM | 100 to 500 nM | 100 to 500 nM | < 100 nM | 
7 | Cc1cc(-c2cnn3c(NCC4CCOCC4)cc(Nc4cccnc4)nc23)ccc1C(=O)NC1CC1 [Example C59] | 100 to 500 nM | 100 to 500 nM | 100 to 500 nM | < 100 nM | 
8 | Cc1cc(-c2cnn3c(NCC4CCOCC4)cc(NC4CC5(COC5)C4)nc23)ccc1C(=O)NC1CC1 [Example C141] | 100 to 500 nM | 100 to 500 nM | ≤ 100 nM | < 100 nM | 
9 | Cc1cc(-c2cnn3c(NCCN4CCC(F)CC4)cc(Oc4cccc(F)c4F)nc23)ccc1C(=O)NC1CC1 [Example C47, N-cyclopropyl-4-(5-(2,3-difluorophenoxy)-7-((2-(4-fluoropiperidin-1-yl)ethyl)amino)pyrazolo[1,5-a]pyrimidin-3-yl)-2-methylbenzamide] | ≤ 100 nM | ≤ 100 nM | ≤ 100 nM | < 100 nM | 
10 | Cc1cc(-c2cnn3c(NCc4cccnc4)cc(OC4CCOCC4)nc23)ccc1C(=O)NC1CC1 [Example C52] | > 500 nM | 100 to 500 nM | 100 to 500 nM | < 100 nM | 
11 | Cc1cc(-c2cnn3c(NCC4CCOCC4)cc(N[C@H]4CCC[C@@H]4O)nc23)ccc1C(=O)NC1CC1 [Example C123] | 100 to 500 nM | ≤ 100 nM | ≤ 100 nM | < 100 nM | 
12 | Cc1cc(-c2cnn3c(NCC4CCOCC4)cc(-c4ccnn4C)nc23)ccc1C(=O)NC1CC1 [Example C151] | 100 to 500 nM | 100 to 500 nM | ≤ 100 nM | < 100 nM | 
13 | Cc1cc(-c2cnn3c(NC[C@H]4C[C@](C)(O)C4)cc(Oc4cccnc4)nc23)ccc1C(=O)NC1CC1 [Example C135] |  |  | ≤ 100 nM |  | GI50 [1, 8]: 100 to 500 nM; GI50 [2, 9]: ≤ 100 nM
14 | Cc1cc(-c2cnn3c(NCC4CCOCC4)cc(NC4CCCC4)nc23)ccc1NC(=O)C1CC1 [Example B15, N-(4-(5-(cyclopentylamino)-7-(((tetrahydro-2H-pyran-4-yl)methyl)amino)pyrazolo[1,5-a]pyrimidin-3-yl)-2-methylphenyl)cyclopropanecarboxamide] |  |  |  |  | IC50 (human TTK; [10]): > 500 nM
15 | Cc1cc(-c2cnn3c(NC[C@H]4CCCO4)cc(NC4CCOCC4)nc23)ccc1C(=O)NC1CC1 [Example C63] |  |  |  | < 100 nM | 
16 | CC[C@H](Nc1cc(NCC2CCOCC2)n2ncc(-c3ccc(C(=O)NC4CC4)c(C)c3)c2n1)[C@H](C)O [Example B30, N-cyclopropyl-4-(5-(((2S,3S)-2-hydroxypentan-3-yl)amino)-7-(((tetrahydro-2H-pyran-4-yl)methyl)amino)pyrazolo[1,5-a]pyrimidin-3-yl)-2-methylbenzamide] |  |  |  |  | IC50 (human TTK; [10]): < 100 nM
17 | Cc1cc(-c2cnn3c(NCC4CCOCC4)cc(NC[C@@H]4CCCO4)nc23)ccc1C(=O)NC1CC1 [Example C29, (S)-N-cyclopropyl-2-methyl-4-(7-(((tetrahydro-2H-pyran-4-yl)methyl)amino)-5-(((tetrahydrofuran-2-yl)methyl)amino)pyrazolo[1,5-a]pyrimidin-3-yl)benzamide] |  |  |  | < 100 nM | 
18 | Cc1cc(-c2cnn3c(NC[C@H]4C[C@@](C)(O)C4)cc(Oc4cccnc4)nc23)ccc1C(=O)NC1CC1 [Example C43, N-cyclopropyl-4-(7-((((1s,3s)-3-hydroxy-3-methylcyclobutyl)methyl)amino)-5-(pyridin-3-yloxy)pyrazolo[1,5-a]pyrimidin-3-yl)-2-methylbenzamide] |  |  | ≤ 100 nM |  | GI50 [1, 8]: ≤ 100 nM; GI50 [2, 9]: ≤ 100 nM
19 | Cc1cc(-c2cnn3c(NCC4CCOCC4)cc(N4CC[C@@H](O)C4)nc23)ccc1C(=O)NC1CC1 [Example C142] |  |  |  | 100 to 500 nM | 
20 | Cc1cc(-c2cnn3c(NCC4CCOCC4)cc(OCCN4CCOCC4)nc23)ccc1C(=O)NC1CC1 [Example C117] |  |  |  | < 100 nM | 
21 | CC(C)NC(=O)c1ccc(-c2cnn3c(NCC4CCOCC4)nc(OC4CCCC4)nc23)cc1 [Example C4] |  |  |  |  | IC50 (human TTK; [5]): 100 to 500 nM
22 | CC(C)C(=O)Nc1ccc(-c2cnn3c(NCC4CCOCC4)nc(Oc4ccccc4)nc23)cc1 [Example C3] |  |  |  |  | IC50 (human TTK; [5]): > 500 nM
23 | Cc1cc(-c2cnn3c(NCCO)cc(NC4CCCC4)nc23)ccc1C(=O)NC1CC1 [Example C81] |  |  |  | < 100 nM | 
24 | Cc1cc(-c2cnn3c(NCCN4CCOCC4)cc(OC4COC4)nc23)ccc1C(=O)NC1CC1 [Example C101] |  |  |  | 100 to 500 nM | 
25 | Cc1cc(-c2cnn3c(NCC(C)C)cc(Oc4ccncc4)nc23)ccc1C(=O)NC1CC1 [Example C149] |  |  |  | 100 to 500 nM | 
26 | Cc1cc(-c2cnn3c(NCC4CCOCC4)cc(N4C5CCC4COC5)nc23)ccc1C(=O)NC1CC1 [Example C112] |  |  |  | < 100 nM | 
27 | Cc1cc(-c2cnn3c(NCC(C)(C)O)cc(Oc4ccccc4)nc23)ccc1C(=O)NC1CC1 [Example B27, N-cyclopropyl-4-(7-((2-hydroxy-2-methylpropyl)amino)-5-phenoxypyrazolo[1,5-a]pyrimidin-3-yl)-2-methylbenzamide] |  |  |  |  | IC50 (human TTK; [10]): < 100 nM

From patent publication US9573954B2, “Pyrazolopyrimidine compounds” (University Health Network, priority 2012, dated 2017)
